In US20160331771A1, “Treatment of Hyperproliferative Disorders Using Cardiac Glycosides” (EpicentRx, Inc., priority 2008, published 2016):

Tests used:
[1] = not given; remark: listed apart in the source
[2] = when used alone; cited from earlier work
[3] = Example 2: two siblings given digoxin daily; type: in vivo, human; conditions: for improvement in pain levels and functionality: both patients
Experimental: Two siblings with severe rheumatoid arthritis characterized by progressive pain, stiffness and swelling of joints in spite of treatment with NSAIDs, narcotics, and immunosuppressants were given 0.125 mg of digoxin daily. No response was noted until the 5th day of treatment at which time both patients reported about a 10% improvement in pain levels and functionality, 2 weeks later the dose of digoxin was doubled to 0.25 mg and the patients both noted a proportional improvement in pain levels and functionality to 20%.

Q: Which “effectiveness of prior therapy” value (Methotrexate 5-10 mg q week with calcipotriene, phototherapy and NSAIDs, prior 4 months) does the source give for `CN(Cc1cnc2nc(N)nc(N)c2n1)c1ccc(C(=O)N[C@@H](CCC(=O)O)C(=O)O)cc1` [Methotrexate] here?
A: The value was “moderately effective”.

Q: With `OC(Cn1cncn1)(Cn1cncn1)c1ccc(F)cc1F` [fluconazole] as the compound, how does the “change in the affected area” value ([1]; 1 week of treatment, before digoxin) read?
A: The value was “no change”.

Q: With `C[C@H]1O[C@@H](O[C@H]2[C@@H](O)C[C@H](O[C@H]3[C@@H](O)C[C@H](O[C@H]4CC[C@@]5(C)[C@H](CC[C@@H]6[C@@H]5C[C@@H](O)[C@]5(C)[C@@H](C7=CC(=O)OC7)CC[C@]65O)C4)O[C@@H]3C)O[C@@H]2C)C[C@H](O)[C@@H]1O` [digoxin, 4-[(3S,5R,8R,9S,10S,12R,13S,14S,)-3-[(2S,4S,5R,6R)-5-[(2S,4S,5R,6R)-5-[(2S,4S,5R,6R)-4,5-dihydroxy-6-methyl-oxan-2-yl]oxy-4-hydroxy-6-methyl-oxan-2-yl]oxy-4-hydroxy-6-methyl-oxan-2-yl]oxy-12,14-dihydroxy-10,13-dimethyl-1,2,3,4,5,6,7,8,9,11,12,15,16,17-tetradecahydrocyclopenta[a]phenanthren-17-yl]-5H-furan-2-one] as the compound, how does the “plasma digoxin concentration at which adverse reactions are rare” value [2] read?
A: Its value is under 0.8 µg/L.

Q: What about the “regression of wound area” value ([1]; 0.125 mg of digoxin, within 3 days) of the same compound?
A: The value was “about 20%”.

Q: And the “improvement in pain levels and functionality” value ([3]; 0.125 mg of digoxin daily, 5th day of treatment)?
A: The value was about 10%.

Q: And the side effects ([3]; digoxin 0.125 mg then 0.25 mg)?
A: Its side effects is “No side effects”.

Q: What about the “improvement in pain levels and functionality” value ([3]; dose doubled to 0.25 mg 2 weeks later) of the same compound?
A: Its value is 20%.

Q: And the joint pain (for one month, next monthly visit)?
A: Its joint pain is “abated”.

Q: What about the “psoriasis at follow up” value (remained on 0.125 mg of digoxin, 2 months later, elbows and ankles, with return of joint pain) of the same compound?
A: Its value is “mild recrudescence”.
